System: acinic cell carcinoma of the glandula mammaria of the NZB mouse Ca 755
Assay: Antitumor activity in mice inoculated with Ca755 mammary adenocarcinoma (tumor growth kinetics, lifetime)
Type: in vivo, C57B1/6 female mice
Experimental: To investigate the antitumor activity of a new dosage form of docetaxel in the composition with PLGA 50/50 the acinic cell carcinoma of the glandula mammaria of the NZB mouse Ca 755 was chosen. As the comparison object free docetaxel substance was used. The experiments were carried out on C57B1/6 female mice with the body weight of 18-20 g.
The anti-tumor activity of the preparations under research was estimated on the basis of the comparative analysis of tumor growth kinetics and comparing the lifetime in test groups and control groups of animals.
The introduction of both the docetaxel-based prolonged-release drug and the free docetaxel was started 48 hours after tumor inoculation.

## CC(=O)O[C@@]12CO[C@@H]1C[C@H](O)[C@@]1(C)C(=O)[C@H](O)C3=C(C)[C@@H](OC(=O)[C@H](O)[C@@H](NC(=O)OC(C)(C)C)c4ccccc4)C[C@@](O)([C@@H](OC(=O)c4ccccc4)[C@H]21)C3(C)C [docetaxel substance, docetaxel]
Even for the dose of 20 mg/kg
  period for which tumor growth inhibition above 50% is retained: ≤ 17 days
Introduction started 48 hours after tumor inoculation
  inhibiting effect upon the tumor growth: strong inhibiting effect
